Data published in patent publication US8324412B2, “Method for preparing 4-[17β-methoxy-17α-methoxymethyl-3-oxoestra-4,9-dien-11β-yl]benzaldehyde (E)-oxime (asoprisnil)” (Bayer Pharma AG, priority 2006, dated 2012).

Assay: Stability of the prior-art amorphous solid form in the solid pharmaceutical form under ICH accelerated conditions
Format: physicochemical
Details: amorphous solid form described in EP 129 26 07, ICH accelerated conditions (40° C., 75% r.h.)
Text: According to the details disclosed in the literature, it is not possible to prepare the individual intermediates on the manufacturing scale in such a way that the medicinally active asoprisnil and its precursors can be obtained therefrom reliably and reproducibly and having the analytical parameters required by the authorities or by the legislation pursuant to ICH Q6A Guidance, 2000, such as byproduct profile, content of active ingredient, chemical and physical purity, and stability. […] The suitability of the asoprisnil obtainable by this method for a solid pharmaceutical form is accordingly low.

With `COC[C@]1(OC)CC[C@H]2[C@@H]3CCC4=CC(=O)CCC4=C3[C@@H](c3ccc(/C=N/O)cc3)C[C@@]21C` [asoprisnil, 4-[17β-methoxy-17α-methoxymethyl-3-oxoestra-4,9-dien-11β-yl]benzaldehyde (E)-oxime] the “Physical stability in the solid pharmaceutical form (recrystallization)” value was “partial to complete recrystallization”.
